Data as given in patent US20260067245A1, “METHODS AND COMPOSITIONS FOR TUMOR THERAPY” (MEMORIAL SLOAN KETTERING CANCER CENTER, priority 2022, published 2026).
Entries after “also recorded” stand apart in the source; their conditions may differ.

Test system: B16F10 cells
Experiment: mouse bilateral tumor model, B16 murine melanoma (one tumor injected, contralateral not injected)
Format: in vivo
Method: By injecting only one of two tumors throughout the course of the experiment it is possible to separate the effect of the injected tumor from the “abscopal” effect on the distant non-injected tumor. Once treatment begins, tumors are measured twice weekly for at least 90 days.
Also, unless indicated otherwise, controls were treated with isotype control antibodies and vehicle only. Furthermore, unless indicated otherwise, all experiments were performed using the mouse bilateral tumor model described below and summarized in FIG. 2.
The animals used had large tumors in two opposite flanks. One tumor was injected while the second remained non-injected (FIG. 2), allowing separate analysis of the effect at the injected tumor from the so-called ‘abscopal’ effect at the non-injected tumor, in order to understand how this treatment could benefit patients with metastatic cancer. […] C57BL/6 mice were initially implanted with 5×10^5 syngeneic B16F10 cells intra-dermally in bilateral flanks. 8 days post tumor cell implantation, when bilateral tumors measured ˜0.5 cm, intratumoral (IT) treatment with various test agents was initiated together with intraperitoneal (IP) anti-PD-1 mAb. Treatment was administered twice weekly for 4 weeks into one of the bilateral tumors. The contralateral tumor remained un-injected for the duration of the experiment.
8 days post tumor cell implantation, when bilateral tumors measured ˜0.5 cm, intratumoral (IT) treatment with agents selected to activate APCs was initiated together with intraperitoneal (IP) anti-PD-1 mAb. Treatment was administered twice weekly for 4 weeks into one of the bilateral tumors. The contralateral tumor remained un-injected for the duration of the experiment (see FIG. 2 for schematic of experimental protocol).
These nanoparticles were administered to animals receiving 250 μg intraperitoneal anti-PD-1 (RMP1-14) concurrently. Non-formulated control animals received mixtures of MPL (5 μg) and FGK45 (20 μg) injected intratumorally with RMP1-14 delivered intraperitoneally. Anti-PD-1-only control animals received 250 μg of intraperitoneal RMP1-14 alone. Isotype/vehicle control animals received isotype control mAbs and vehicle corresponding to the nanoparticle-treated group.

Compound	activity when substituted for MPL in the regimen (FIG. 35B, bilateral tumor model)	survival (concurrent systemic (IP) addition to intratumoral MPL, anti-IL10R and anti-CD40 (41040))
PolyIC	could be substituted for MPL; also recorded: can be substituted for MPL, albeit possibly with slightly reduced activity	–
O=C1[O][Pt]2([NH][C@@H]3CCCC[C@H]3[NH]2)[O]C1=O [oxaliplatin]	–	increases survival
